Common to all, as to format: functional, cell-based
For test [1], the system named is A549. Briefly: Cytotoxicity against human A549 cells by MTT assay. On the technique in general: Tetrazolium dyes change colour on reduction, which living cells bring about.
For test [2], the system named is HeLa. Briefly: Cytotoxicity against human HeLa cells by MTT assay.
Test [3] deals with BGC-823. In words: Cytotoxicity against human BGC823 cells by MTT assay.
For test [4], the system named is KB. Briefly: Cytotoxicity against human KB cells by MTT assay.
The test system of test [5] is HCT-8. Briefly: Cytotoxicity against human HCT8 cells by MTT assay.
Test [6] deals with Bel-7402. Briefly: Cytotoxicity against human Bel7402 cells by MTT assay.
Test [7] has as its system A2780. In words: Cytotoxicity against human A2780 cells by MTT assay.
The subject of test [8] is HL-60. Briefly: Cytotoxicity against human HL60 cells.

Where only a bound is given, the exact number is not on record here.

Among the data in ChEMBL document CHEMBL1955738, “Synthesis and antitumor activity of 5,6-dihydro-17-hydroxy icogenin analogs” (Eur J Med Chem, 2012) are IC50 values, retold here.

`CO[C@]1(CC[C@@H](C)CO)O[C@H]2C[C@H]3[C@@H]4CCC5C[C@@H](O)CC[C@]5(C)[C@H]4CC[C@]3(C)[C@@]2(O)[C@@H]1C` (some centres not stated): the IC50 in test [1], in test [2], in test [3], in test [4], in test [5] and in test [6] was above 10 µM each time. The IC50 (commonly the concentration at which inhibition is half-maximal) in test [7] is above 10 µM.

On to `CO[C@]1(CC[C@@H](C)CO)O[C@H]2C[C@H]3[C@@H]4CCC5C[C@@H](O[C@@H]6O[C@H](CO)[C@@H](O)[C@H](O)[C@H]6O)CC[C@]5(C)[C@H]4CC[C@]3(C)[C@@]2(O)[C@@H]1C` (some centres not stated), for which the IC50 in test [1], in test [2], in test [3], in test [4], in test [5] and in test [6] was above 10 µM each time. The IC50 in test [7] is above 10 µM.

Regarding `CO[C@]1(CC[C@@H](C)CO)O[C@H]2C[C@H]3[C@@H]4CCC5C[C@@H](O[C@H]6O[C@H](CO)[C@@H](O)[C@H](O)[C@H]6O[C@@H]6O[C@@H](C)[C@H](O)[C@@H](O)[C@H]6O)CC[C@]5(C)[C@H]4CC[C@]3(C)[C@@]2(O)[C@@H]1C` (some centres not stated), the IC50 came to 3.68 µM in test [1]; 7.8 µM in test [2]; 4.29 µM in test [3]; 5.97 µM in test [4]; 3.38 µM in test [5]; 8.3 µM in test [6]. The same compound returned an IC50 in test [7] of 7.96 µM.

In the case of `CO[C@]1(CC[C@@H](C)CO)O[C@H]2C[C@H]3[C@@H]4CCC5C[C@@H](O[C@H]6O[C@H](CO)[C@@H](O[C@@H]7O[C@H](CO)[C@@H](O)[C@H](O)[C@H]7O)[C@H](O)[C@H]6O[C@@H]6O[C@@H](C)[C@H](O)[C@@H](O)[C@H]6O)CC[C@]5(C)[C@H]4CC[C@]3(C)[C@@]2(O)[C@@H]1C` (some centres not stated), the IC50 was 1.9 µM in test [1]; 8.31 µM in test [2]; 7.97 µM in test [3]; 5.24 µM in test [4]; 6.05 µM in test [5]; 9.69 µM in test [6]. In test [7], this compound displayed an IC50 of 8.21 µM.

`C[C@@H]1CC[C@@]2(OC1)O[C@H]1C[C@H]3[C@@H]4CC=C5C[C@@H](O[C@@H]6O[C@H](CO)[C@@H](O[C@@H]7O[C@@H](C)[C@H](O)[C@@H](O)[C@H]7O)[C@H](O)[C@H]6O[C@@H]6O[C@@H](C)[C@H](O)[C@@H](O)[C@H]6O)CC[C@]5(C)[C@H]4CC[C@]3(C)[C@H]1[C@@H]2C` [DIOSCIN]: the IC50 was determined as 0.81 µM in test [1]; 0.5 µM in test [2]; 1.08 µM in test [3]; 0.53 µM in test [4]; 0.34 µM in test [5]; 0.81 µM in test [6]. Further, in test [7], the IC50 is 0.87 µM.

`CO[C@]1(CC[C@H](C)CO)O[C@H]2C[C@H]3[C@@H]4CC=C5C[C@@H](O[C@@H]6O[C@H](CO)[C@@H](O)[C@H](O[C@@H]7O[C@H](CO)[C@@H](O)[C@H](O)[C@H]7O)[C@H]6O[C@@H]6O[C@@H](C)[C@H](O)[C@@H](O)[C@H]6O)CC[C@]5(C)[C@H]4CC[C@]3(C)[C@H]2[C@@H]1C` [ICOGENIN]: in test [8], it took 2.6 µM to reach half-maximal inhibition (IC50).

Compound `C[C@@H](CC[C@@]1(O)O[C@H]2C[C@H]3[C@@H]4CC[C@@H]5C[C@@H](O[C@@H]6O[C@H](CO)[C@H](O)[C@H](O)[C@H]6O[C@@H]6O[C@H](CO)[C@@H](O)[C@H](O)[C@H]6O)CC[C@]5(C)[C@H]4CC[C@]3(C)[C@H]2[C@@H]1C)CO[C@@H]1O[C@H](CO)[C@@H](O)[C@H](O)[C@H]1O` [TIMOSAPONIN BII] had an IC50 in test [8] of 15.5 mg/L.
